Data reported in patent publication US12139478B2, “Compounds, compositions and methods” (Denali Therapeutics Inc., priority 2017, dated 2024).
Like-named read-outs stand apart in the source and are kept apart here.

System: ATF4 translation
Assay: ATF4 Nano Luciferase reporter integrated stress response (ISR) assay in H4 ATF4-NLuc cells
Format: cell-based, human
Details: Homo sapiens, 0.5 h, H4 ATF4-NLuc (clone 17) cells, compound 30 minutes, then sodium arsenite for 6 additional hours, luminescence readout
Description: Cellular stress leads to activation of the integrated stress response pathway through one of four eukaryotic initiation factor 2a kinases and halts global translation, while allowing for the translation of select transcripts like ATF4 (activating transcription factor 4) that are important for the response to cellular stress. During normal conditions, small open reading frames (ORFs) in the 5′ UTR of ATF4 occupy the ribosome and prevent translation of the coding sequence of ATF4. During stress conditions however, the ribosome scans past these upstream ORFs and preferentially begins translation at the coding sequence of ATF4. In this way, the translation, and thus protein level of ATF4 is a readout of ISR pathway activation. Thus, a fusion of the uORFs and the beginning of the coding sequence of ATF to a common cellular reporter like nano-luciferase allows for a sensitive and high-throughput readout of ISR pathway activity.
Compounds as provided herein were tested in the following assay. The ATF4 Nano Luciferase reporter was constructed by fusing the human full length 5′ untranslated region (5′-UTR) and a small portion of the coding sequence of the ATF4 gene upstream of the Nano Luciferase (NLuc) coding sequence lacking it's start codon. Specifically, nucleotides +1 through +364 (relative to the transcriptional start site) of ATF4 transcript variant 2 (NCBI NM_182810.2) flanked 5′ by EcoRI and 3′ by BamHI restriction enzyme sites were synthesized and cloned into the EcoRI/BamHI cloning sites of pLVX-EF1a-IRES-Puro lentivirus vector (Clontech). Lentiviral particles were produced with Lenti-X single shots (VSV-G, Clontech) according to the manufacturer's instructions and used to transduce a human H4 neuroglioma cell line (ATCC HTB-148). H4 cells were selected with 1.25 μg/mL Puromycin, and clonal cell lines generated by limiting dilution. We utilized this cell line to generate an integrated stress response (ISR) assay to evaluate the activity of ISR pathway inhibitors via luminescence readout. The H4 ATF4-NLuc (clone 17) cell line is plated at a density of […] in 96-well or 384-well respectively in DMEM+[…]. 24-hours later test compounds diluted in dimethyl sulfoxide (DMSO) are added for 30 minutes at 37° C., followed by ISR pathway activation with […] sodium arsenite aqueous solution for 6 additional hours. Nano Glo luciferase reagent (N1150, Promega) is added according to manufacturer instructions and the luminescence signal (corresponding to the level of ATF4 translation and thus ISR pathway activation) is read with a standard plate reader with luminescence detection capabilities. […] In the tables below, activity of the tested compounds is provided, and in Table 3 as follows: […]; ++=IC50 1-10 μM; +=IC50>10 μM.

[1] = read-out: Biological Example 1 (ATF4 translation, IC50 nM)

Row | SMILES | IC50 (read-out: Activity) | IC50 [1]
1 | O=C(N[C@H]1CO[C@H](c2nnc(C3CC(OC(F)(F)F)C3)o2)CC1(F)F)c1ccc2cc(F)ccc2n1 (stereo partly drawn) [Example 59, N-((3S,6S)-4,4-difluoro-6-(5-(3-cis-(trifluoromethoxy)cyclobutyl)-1,3,4-oxadiazol-2-yl)tetrahydro-2H-pyran-3-yl)-6-fluoroquinoline-2-carboxamide] | < 1000 nM | 
2 | O=C(N[C@@H]1CC[C@@H](c2nnc(C3CC(OC(F)(F)F)C3)o2)OC1)c1ccc2cc(C(F)(F)F)ccc2n1 (stereo partly drawn) [Example 60, N-((3R,6S)-6-(5-(3-cis-(trifluoromethoxy)cyclobutyl)-1,3,4-oxadiazol-2-yl)tetrahydro-2H-pyran-3-yl)-6-(trifluoromethyl)quinoline-2-carboxamide] | < 1000 nM | 3.5 nM
3 | O=C(COc1ccc(C(F)(F)F)cc1)N[C@H]1CO[C@H](c2nnc(C3CC(OC(F)(F)F)C3)o2)CC1(F)F (stereo partly drawn) [Example 61, N-((3S,6S)-4,4-difluoro-6-(5-(3-cis-(trifluoromethoxy)cyclobutyl)-1,3,4-oxadiazol-2-yl)tetrahydro-2H-pyran-3-yl)-2-(4-(trifluoromethyl)phenoxy)acetamide] | < 1000 nM | 14.4 nM
4 | O=C(COc1ccc(Cl)c(F)c1)N[C@H]1CO[C@H](c2nnc(C3CC(OC(F)(F)F)C3)o2)CC1(F)F (stereo partly drawn) [Example 62, 2-(4-chloro-3-fluorophenoxy)-N-((3S,6S)-4,4-difluoro-6-(5-(3-cis-(trifluoromethoxy)cyclobutyl)-1,3,4-oxadiazol-2-yl)tetrahydro-2H-pyran-3-yl)acetamide] | < 1000 nM | 

Further lines, results first:

Row | IC50 (read-out: Activity) | IC50 [1] | SMILES
5 | < 1000 nM |  | O=C(N[C@@H]1CC[C@@H](c2nnc(C3CC(OC(F)(F)F)C3)o2)OC1)[C@@H]1CCc2cc(F)ccc2O1 (stereo partly drawn) [Example 66, 6-fluoro-N-((3R,6S)-6-(5-(3-cis-(trifluoromethoxy)cyclobutyl)-1,3,4-oxadiazol-2-yl)tetrahydro-2H-pyran-3-yl)chroman-2-carboxamide]
6 | < 1000 nM | 3.1 nM | O=C(COc1ccc(Cl)cc1)N[C@H]1CO[C@H](c2nnc(C3CC(OC(F)(F)F)C3)o2)C[C@@H]1F (stereo partly drawn) [Example 67, 2-(4-chlorophenoxy)-N-((3S,4S,6S)-4-fluoro-6-(5-(3-cis-(trifluoromethoxy)cyclobutyl)-1,3,4-oxadiazol-2-yl)tetrahydro-2H-pyran-3-yl)acetamide]
7 | < 1000 nM |  | O=C(COc1ccc(Cl)cc1)N[C@H]1CO[C@H](c2nnc(C3CC(OC(F)(F)F)C3)o2)[C@@H](F)C1 (stereo partly drawn) [Example 68, 2-(4-chlorophenoxy)-N-((3R,5S,6R)-5-fluoro-6-(5-(3-cis-(trifluoromethoxy)cyclobutyl)-1,3,4-oxadiazol-2-yl)tetrahydro-2H-pyran-3-yl)acetamide]
8 | < 1000 nM | 8.9 nM | O=C(N[C@@H]1CC[C@@H](c2nnc(C3CC(OC(F)(F)F)C3)o2)OC1)c1ccc2cc(F)c(F)cc2n1 (stereo partly drawn) [Example 75, 6,7-difluoro-N-((3R,6S)-6-(5-(3-cis-(trifluoromethoxy)cyclobutyl)-1,3,4-oxadiazol-2-yl)tetrahydro-2H-pyran-3-yl)quinoline-2-carboxamide]
9 | < 1000 nM |  | O=C(N[C@@H]1CC[C@@H](c2nnc(C3CC(OC(F)(F)F)C3)o2)OC1)c1ccc2c(F)c(F)ccc2n1 (stereo partly shown) [Example 76]
